Data published in patent publication US10753924B2, “Method for selecting patients responsive for cancer treatments” (Mitogro OÜ, priority 2016, dated 2020).
Marks after values point to notes of the source that are not given here.

Experiments:
[1] = system: permeabilized MCF-7 cells; assay: Citrate efflux from permeabilized MCF-7 cells (induction phase in Oroboros oxygraph, enzymatic citrate measurement); format: cell-based, human; settings: 4.56 × 10^6 cells/ml
Procedure: Stock culture of MCF-7 cells was obtained from American Type Culture Collection (ATCC® Number: HTB-22™). The cells were grown as adherent monolayers in big T75 flasks (Greiner Bio-One GmbH, Germany) in low glucose (1.0 g/L) DMEM with stable L-glutamine (PAA Laboratories GmbH, Austria) that was supplemented with 1 mM Na-pyruvate (Gibco®, REF 11360-039), 10% heat-inactivated fetal bovine serum (FBS), […] human recombinant insulin (Gibco) and antibiotics: penicillin (100 U/ml), streptomycin (100 μg/ml) and gentamicin at a final concentration of 50 μg/ml. MCF-7 cells were grown and maintained at 37° C. in a humidified incubator containing 5% CO2 in air. The cells were sub-cultured at 2-3 day intervals.
MCF-7 cells were harvested from 5 T75 flasks (72 h after their seeding at a subculturing ratio of 1/5) by means of accutase (a cell detachment agent) treatment.
After detachment, the cell were washed twice with Mitomed-B solution (see Table 2), supplemented with lmg/ml bovine serum albumin (BSA) and 3-5 μM leupeptin (protease inhibitor) with centrifugation (on a Heraus “Biofuge primo R” refrigerated centrifuge equipped with a swing-out rotor, 150×g for 7 min at 4° C.). After washing, the pellet was resuspended in 2.5 ml of Mitomed-B (supplemented with lmg/ml BSA and 3-5 μM leupeptin) and the cells were stored on melting ice.
The experiments were carried out in an Oroboros oxygraph. Two parallel chambers on the same device were used. Reaction medium was Lahus-B as described below (Table 3).
Saponine concetration suitable for viability of MCF-7 cells was defined as 30 μg/ml. Malate, 2 mM, was present in all protocols in the reaction medium. BMS303141 was used to inhibit activity of ATP-citratelyase to stop it from metabolizing free citrate that accumulates to the reaction medium. 1,2,3-benzenetricarboxylic acid was used to stop citrate efflux from mitochondria. Saponine incubation time was 5 minutes. Cytochrome c and CAT were injected to the reaction medium right at the end of the experiment to assess the quality of mitochondrial inner and outer membranes. […]

[2] = system: permeabilized human breast cancer fibers; assay: Citrate efflux from permeabilized fibers derived from human breast cancer clinical sample; format: cell-based
Procedure: In order to reach experiment targets, the sarcolemma and plasma membranes in skinned tumor fibers were completely permeabilized by saponin treatment keeping the mitochondrial membranes intact (both tumor and healthy tissue samples from the same patient were processed equally). Namely, skinned fibers were transferred into plastic vials with pre-cooled (on ice) Lahus-A (Table 8) containing 50 μg/ml saponin and incubated with mild stirring (at 40 rpm) for 30 min at 4° C. Permeabilized fibers were then washed in pre-cooled solution Lahus-B (Table 3) for 5 min under mild stirring; this washing procedure was performed three times to completely remove saponin and all soluble metabolites. The washed samples were placed into Lahus-B (Table 3) and kept in the same medium (at 4° C.) until use.
The experiments were carried out in an Oroboros oxygraph. Two parallel chambers on the same device were used. Reaction medium was Lahus-B (Table 3).
Saponine concetration suitable for viability of skinned breast cancer fibers was defined as 50 μg/ml. Malate, 2 mM, was present in all protocols in the reaction medium. BMS303141 was used to inhibit activity of ATP-citrate lyase to stop it from metabolizing free citrate that accumulates to the reaction medium. 1,2,3-benzenetricarboxylic acid was used to stop citrate efflux from mitochondria. Cytochorome c and CAT were injected to the reaction medium right at the end of the experiment to assess the quality of mitochondrial inner and outer membranes.
Duration of the induction phase: 1 hour.
Once the induction medium was ended, the reaction medium was transferred to 2.5 ml Eppendorf tube for centrifugation (14 000 rpm, 7 minutes). Fiber was removed from the reaction medium and weighted for calculations. The supernatant from the centrifugation was collected through syringe filter and stored on ice. Remaining debris was discarded as biological waste.
900 μl of each supernatant was used to enzymatically measure concentration of citrate as described before (Petrarulo et al, 1995).

O=C(O)c1cccc(C(=O)O)c1C(=O)O [1,2,3-BTC, 1,2,3-benzenetricarboxylic acid]
citrate efflux ([1]; protocol 2: glutamate 5 mM + malate 2 mM, 1,2,3-BTC 1 mM, 1 hour induction (without inhibitor: 1428)): 1098 ng citrate per 10^6 cells per
citrate efflux ([1]; protocol 4: pyruvate 0.05 mM + malate 2 mM, 1,2,3-BTC 1 mM, 1 hour induction (without inhibitor: 5564)): 1524 ng citrate per 10^6 cells per
citrate efflux ([1]; protocol 6: PalCar 40 μM + malate 2 mM, 1,2,3-BTC 1 mM, 1 hour induction (without inhibitor: 3059)): 1156 ng citrate per 10^6 cells per
effect on citrate accumulation in the reaction medium ([2]; permeabilized human breast cancer fibers, 1,2,3-BTC 1 mM): blocked the citrate accumulation in the reaction medium
citrate efflux ([2]; protocol 2: Glut/Mal, 1,2,3-BTC 1 mM, cancer fibers, footnote: result below detection limit (without inhibitor: 144.1, 172.1)): 41.7** ng citrate/mg × 60 min
citrate efflux ([2]; protocol 4: Pyr/Mal, 1,2,3-BTC 1 mM, cancer fibers, footnote: result below detection limit (without inhibitor: 194.6)): 17.6** ng citrate/mg × 60 min
citrate efflux ([2]; protocol 6: Palcar/Mal, 1,2,3-BTC 1 mM, cancer fibers (without inhibitor: 158.7)): 73.7 ng citrate/mg × 60 min
